Laboratory results reported in patent publication EP4775586A1, “DEUTERATED TETRACYCLIC DERIVATIVE AND USE THEREOF” (priority 2023, dated 2025).
Where “and” joins values, the source holds several entries; their conditions need not be identical. Equal values may be shown once. Read-outs that look alike come from different tables or passages of the source.

Assays:
[1] = system: Mycobacterium tuberculosis H37Rv; assay type: in vivo, BALB/c mice
[2] = 28-day repeat-dose toxicity study in mice; assay type: in vivo, Balb/c mice; details: 100 mg/kg intragastric, once daily, 6 days a week, 4 weeks, Balb/c mice
Method: Administration groups of the compound YF027 of the present disclosure and its non-deuterated control compound A were set for a 28-day repeat-dose toxicity study in mice. Each compound was administered to 10 Balb/c mice (5 females and 5 males, purchased from Beijing Vital River Laboratory Animal Technology Co., Ltd.) by intragastric administration. The administration was performed once daily for 6 consecutive days a week for 4 consecutive weeks, and an 8% Tween 80 vehicle control group (10 Balb/c mice, 5 females and 5 males) was set for administration at the same volume using the same method. Table 12. Administration information of repeat-dose toxicity assay
During the administration period, the mice were observed every day. The body weight, appearance signs, behavior and activity, fecal traits, and local reactions at the site of administration were recorded. After the end of the administration, the gross anatomy was performed on the mice in the administration group and the control group. The serum of the mice was collected, and the heart, liver, spleen, kidney, lung, and brain tissues and organs were weighed to calculate organ coefficients. The tissue samples of all groups were subjected to histopathological detection, and the serum samples were analyzed for biochemical parameters of liver and kidney functions. The serum biochemical parameters included: alanine aminotransferase (ALT), aspartate aminotransferase (AST), alkaline phosphatase (ALP), urea (UREA), creatinine (CREA), total protein (TP), and albumin (ALB). Statistical analysis was performed to evaluate potential toxic effects of the compounds.

[3] = molecular target: T1, CYP1A2 (Mus musculus, UniProt P00186); assay type: in vitro ADME
T1 construct: from tissue; host or cells: mouse liver microsomes (component of a kit)
T1 sequence (P00186 1-513): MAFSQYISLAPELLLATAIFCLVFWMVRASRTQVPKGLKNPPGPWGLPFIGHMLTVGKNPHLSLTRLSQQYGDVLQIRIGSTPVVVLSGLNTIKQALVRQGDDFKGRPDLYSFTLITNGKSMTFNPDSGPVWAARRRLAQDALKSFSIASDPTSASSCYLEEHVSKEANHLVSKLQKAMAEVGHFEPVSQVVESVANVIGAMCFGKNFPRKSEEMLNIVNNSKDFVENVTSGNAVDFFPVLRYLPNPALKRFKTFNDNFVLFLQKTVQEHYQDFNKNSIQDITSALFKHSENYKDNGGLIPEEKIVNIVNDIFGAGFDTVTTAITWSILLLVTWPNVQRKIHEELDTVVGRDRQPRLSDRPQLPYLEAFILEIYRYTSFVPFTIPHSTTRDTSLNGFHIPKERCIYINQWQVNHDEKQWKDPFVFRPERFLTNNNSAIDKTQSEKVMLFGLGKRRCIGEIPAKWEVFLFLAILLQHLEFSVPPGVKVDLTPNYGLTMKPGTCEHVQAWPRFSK
Method: (§1) This example was to detect the CYP450 metabolic enzyme phenotype of the deuterated compound YF027 and its non-deuterated control compound A (using a CYP450 enzyme metabolic phenotype research kit (recombinant enzymatic method/7 enzymes)-mouse liver microsome test).
(§2) • a. The test compound was prepared into a 40 mM stock solution for later use. 2.5 µL of the stock solution was taken and diluted with DMSO to a test compound concentration of 200 µM, and the compound at this concentration was used in subsequent tests. • b. The working solution concentration of the mixed positive substrates, phenacetin and testosterone, was 200 µM.
(§3) 1) The components of the kit were thawed in an ice bath. The mixture was well mixed by vortexing and then placed on ice for later use. 2) In addition to the microsomes, the other components of the incubation systems were mixed according to the ratios and well mixed by pipetting, and the ratios of the incubation systems are shown below; Table 6. Incubation system of positive control group
(§4) The inhibitors were quinidine, naphthoflavone, pilocarpine, sodium diethyldithiocarbamate, ticlopidine, ketoconazole, and sulfaphenazole, which corresponded to the inhibition of CYP450 enzymes CYP2D6, CYP1A2, CYP2A6, CYP2E1, CYP2C19, CYP3A4, and CYP2C9, respectively. Table 9. Incubation system of negative control group
(§5) 3) Except for the negative control group (Table 9), 3.125 µL of liver microsomes was added to each of the above incubation systems to prepare 125 µL of reaction solution. The reaction solutions were well mixed by vortexing, and then placed in a water bath at 37 °C to initiate the reaction. A timer was set. 4) At time points of 0 min and 90 min, 50 µL of reaction solution was taken, and a pre-cooled acetonitrile solution was added to the reaction solution. The mixture was quickly well mixed by vortexing to stop the reaction. 5) Mass spectrometry detection pretreatment of reaction solution
(§6) The reaction solution was cryopreserved in a refrigerator at -80 °C overnight and then centrifuged for mass spectrometry detection.
(§7) The detection values after 90 min of incubation were processed as ratios relative to the 0-min detection values to determine the metabolic rate of the compounds in different experimental groups after 90 min. The metabolic inhibition rate was then calculated using the formula: Inhibition rate (%) = (1 - metabolic rate of sample with inhibitor/metabolic rate of sample without inhibitor) × 100%, as shown in Table 10 below. […] The metabolic inhibition rate reflects the effect on the metabolic elimination of the drug after adding different selective inhibitors. […]

[4] = molecular target: T2, CYP2E1 (Mus musculus, UniProt Q05421); assay type: in vitro ADME
T2 construct: from tissue; host or cells: mouse liver microsomes (component of a kit)
Method: as §1, §2, §3, §4, §5, §6, §7

[5] = system: CYP2A6; assay type: in vitro ADME, mouse
Method: as §1, §2, §3, §4, §5, §6
(§8) The detection values after 90 min of incubation were processed as ratios relative to the 0-min detection values to determine the metabolic rate of the compounds in different experimental groups after 90 min. The metabolic inhibition rate was then calculated using the formula: Inhibition rate (%) = (1 - metabolic rate of sample with inhibitor/metabolic rate of sample without inhibitor) × 100%, as shown in Table 10 below. […] The metabolic inhibition rate reflects the effect on the metabolic elimination of the drug after adding different selective inhibitors. Therefore, when the metabolic inhibition rate of a specific enzyme is ≥ 25%, the contribution of the specific enzyme to the clearance of the drug under study can be inferred to be ≥ 25% based on the results of the in vitro metabolism study.

[6] = system: CYP2C9; assay type: in vitro ADME, mouse
Method: as §1, §2, §3, §4, §5, §6, §8

[7] = system: CYP2D6; assay type: in vitro ADME, mouse
Method: as §1, §2, §3, §4, §5, §6, §8

[8] = system: CYP3A4; assay type: in vitro ADME, mouse
Method: as §1, §2, §3, §4, §5, §6, §8

[9] = system: CYP2C19; assay type: in vitro ADME, mouse
Method: as §1, §2, §3, §4, §5, §6, §8

[10] = system: Mycobacterium tuberculosis H37Rv; assay: Minimum inhibitory concentration (MIC90) against Mycobacterium tuberculosis H37Rv, Middlebrook 7H9, 96-well plate, 15 days; assay type: cell-based; details: Mycobacterium tuberculosis, H37RV, 360 h
[11] = Pharmacokinetics and lung tissue distribution in mice, LC-MS/MS; assay type: in vivo, Balb/C mice; details: mouse, in vivo, po, 100 mg/kg
Method: In this example, the pharmacokinetic parameters and lung tissue distribution of the deuterated compounds YF027, YF032, YF036, and YF044 and their respective non-deuterated control compounds (A, B, C, and D) were determined.
Balb/C mice, male (1 group at each time point, 5 mice per group, 55 mice per compound in total), 7-8 weeks old, weighing about 20 g, animal source: Beijing Vital River Laboratory Animal Technology Co., Ltd.
The test compound was completely dissolved in an 8% Tween-80 aqueous solution. A 10 mg/mL drug liquid was prepared for intraperitoneal injection and intragastric administration.
Single intragastric administration was performed at a dose of 100 mg/kg. The pharmacokinetic differences between the deuterated compounds YF027, YF032, YF036, and YF044 and their respective non-deuterated controls A, B, C, and D were compared.
The mice were fasted overnight before administration. In the experiment, orbital venous blood and lung tissue were collected from the mice at time points of no administration group (0 min) and 10 min, 20 min, 30 min, 1 h, 2 h, 3 h, 4 h, 6 h, 8 h, and 24 h after intragastric administration, and about 300 µL of blood was collected from the eyeballs each time.
The collected blood sample was placed in an anticoagulation tube, and quickly inverted and mixed well. The tube was temporarily placed on ice after being labeled. The blood samples temporarily stored on ice were subjected to low-temperature centrifugation within 1 h at 4 °C at 3000 rpm for 10 min. The supernatant obtained after centrifugation was plasma. The plasma was transferred to a new centrifuge tube and stored in a refrigerator at -80 °C for subsequent detection.
The lung tissues of the mice were collected, washed with pre-cooled normal saline to remove the residual blood and tissue fluid, dried with absorbent paper, weighed with a balance, and placed into a centrifuge tube. The tubes were marked and stored in a refrigerator at -80 °C.
The concentrations of the compounds of the present disclosure and control compounds in plasma and lung tissue were determined using LC-MS/MS. Table 2. Pharmacokinetic parameters of compound YF027 of the present disclosure and control compound A

[12] = system: liver microsomes; assay: Liver microsome incubation of positive control group (positive substrates); assay type: in vitro ADME, mouse
Method: as §1, §2, §3
3) Except for the negative control group (Table 9), 3.125 µL of liver microsomes was added to each of the above incubation systems to prepare 125 µL of reaction solution. The reaction solutions were well mixed by vortexing, and then placed in a water bath at 37 °C to initiate the reaction. A timer was set. […]

T2 sequence (Q05421 whole entry): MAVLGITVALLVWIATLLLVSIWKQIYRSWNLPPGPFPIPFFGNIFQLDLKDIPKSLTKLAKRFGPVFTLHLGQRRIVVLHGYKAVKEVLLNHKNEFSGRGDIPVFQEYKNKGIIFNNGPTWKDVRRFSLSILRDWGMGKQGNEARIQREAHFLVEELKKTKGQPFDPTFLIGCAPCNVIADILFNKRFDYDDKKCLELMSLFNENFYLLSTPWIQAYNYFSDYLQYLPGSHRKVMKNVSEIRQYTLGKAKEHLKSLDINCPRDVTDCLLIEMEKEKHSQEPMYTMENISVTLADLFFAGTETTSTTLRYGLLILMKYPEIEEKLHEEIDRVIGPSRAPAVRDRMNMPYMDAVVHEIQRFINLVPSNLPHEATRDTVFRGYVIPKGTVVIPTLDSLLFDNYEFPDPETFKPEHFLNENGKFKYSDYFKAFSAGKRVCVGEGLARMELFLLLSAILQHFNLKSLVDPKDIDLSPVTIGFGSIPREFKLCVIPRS

## CC(C)(C)c1cc(O)c(CN2CCCCC2)c2c1oc1c3ccc(O)cc3oc(=O)c12 [Compound A, reference compound]
[1]; 100 mg/kg intragastrically, 4 weeks, mice
  pulmonary Mycobacterium tuberculosis clearance rate: 87.7%
[1]; mouse, in vivo
  reduction of pulmonary bacterial load: 0.91 log
[2]
  mortality during the administration period: no mice died
[3]
  Inhibition rate: -11.7%
[4]
  Inhibition rate: -26.5%
[5]
  Inhibition rate: 4.2%
[6]
  Inhibition rate: -2.8%
[7]
  Inhibition rate: -8.7%
[8]
  Inhibition rate: 76.9%
[9]
  Inhibition rate: -19.3%
[10]
  MIC90: ≤ 3.9 ng/mL
[11]
  AUC(0-inf): 121 ng·h/mL
  AUC(0-t) at 24 h: 117 ng·h/mL
  Cmax: 120 ng/mL and 948 ng/g
  Tmax: 0.167 h
  half-life: 4.35 h

## CCOc1ccc(NC(C)=O)cc1 [phenacetin]
[12]
  metabolism of positive substrate: almost completely metabolized

## C[C@]12CC[C@H]3[C@@H](CCC4=CC(=O)CC[C@@]43C)[C@@H]1CC[C@@H]2O [testosterone]
[12]; liver microsomes, after 90 min of incubation, 37 °C
  metabolism of positive substrate: almost completely metabolized
